Some test systems named below: A498 renal; A549 NSCLC; BT-549 breast; CAKI-1 renal; EKVX NSCLC; HL-60(TB) leukemia; HT29 colon; MDA-N; MOLT-4 leukemia; NCI-H226 lung; NCI-H23 lung; NCI/ADR-RES ovarian; OVCAR-4 ovarian; SF-268 CNS; SF-295 CNS; SNB-75 CNS; SR leukemia; T-47D breast; UACC-62 melanoma.
Common to all, as to assay: NCI-60 cell line screen, 48 h

“And” between values parts separate entries of the source, which are not always exact repeats. Equal entries are not always repeated.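 Grown in 96-well plates, cells were treated for 48 hours with each compound at five concentrations. Insufficient inhibition: endpoint recorded as highest concentration tested. Abbreviation: GI50, concentration required for 50% inhibition of growth. Definition used: TGI = concentration required for complete inhibition of growth.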

Consider `Cc1ccc2c(=O)cc(-c3cc(C)sc3C)[nH]c2n1`, for which the TGI was more than 100 µM in the test on A498 renal; more than 39.3 µM in the test with A549 NSCLC; more than 100 µM with BT-549 breast; more than 100 µM in the test on CAKI-1 renal; more than 100 µM in the test with EKVX NSCLC; 6.74 µM in the test with HL-60(TB) leukemia. Also, the TGI was 32.9 µM in the test with HT29 colon; 1.92 µM in the test on MDA-N; more than 77.6 µM with MOLT-4 leukemia; 7.62 µM in the test with NCI-H226 lung; more than 24 µM in the test with NCI-H23 lung; 5.29 µM in the test with NCI/ADR-RES ovarian. The TGI in the test on OVCAR-4 ovarian is more than 100 µM; with SF-268 CNS, more than 73.4 µM; in the test with SF-295 CNS it was 7.54 µM; in the test on SNB-75 CNS it was more than 29.9 µM; with SR leukemia, more than 86.3 µM; in the test with T-47D breast, more than 100 µM. Besides, in the test on UACC-62 melanoma, the TGI is more than 100 µM.

For the compound `CC(C)(C)OC(=O)/N=C/c1c(O)c2ccccc2oc1=O`, the TGI with A498 renal was 78.5 µM; in the test with A549 NSCLC, more than 100 µM; in the test with BT-549 breast, more than 100 µM; in the test with CAKI-1 renal, 52.6 µM; in the test with EKVX NSCLC, more than 100 µM; with HL-60(TB) leukemia it was more than 100 µM. Moreover, the TGI is more than 100 µM in the test on HT29 colon; more than 100 µM in the test on MDA-N; more than 100 µM with MOLT-4 leukemia; 64.7 µM with NCI-H226 lung; more than 100 µM in the test with NCI-H23 lung; more than 100 µM in the test on NCI/ADR-RES ovarian. Besides, the TGI with OVCAR-4 ovarian, in the test on SF-268 CNS, in the test on SF-295 CNS, in the test on SNB-75 CNS, in the test with SR leukemia and with T-47D breast was more than 100 µM throughout. Moreover, the TGI with UACC-62 melanoma is more than 100 µM.

As for `Cc1nc2ccc(S(=O)(=O)O)cc2c(=O)n1-c1ccc(C(=O)NN2C(=O)C(Cl)C2c2cccs2)cc1` (stereo not given), the TGI in the test with A498 renal is more than 100 µM; with A549 NSCLC, more than 100 µM; in the test with BT-549 breast, more than 100 µM; with CAKI-1 renal, more than 100 µM; with EKVX NSCLC, 35.3 µM; in the test with HL-60(TB) leukemia, 51.8 µM. For the same compound, the TGI in the test on HT29 colon was more than 100 µM; with MDA-N it was 80.2 µM; in the test with MOLT-4 leukemia, more than 100 µM; in the test with NCI-H226 lung, more than 100 µM; with NCI-H23 lung it was more than 100 µM; in the test on NCI/ADR-RES ovarian, more than 100 µM. Also, the TGI in the test on OVCAR-4 ovarian is 79.7 µM; in the test on SF-268 CNS, 44.3 µM; in the test with SF-295 CNS, more than 100 µM; with SNB-75 CNS, more than 100 µM; in the test with SR leukemia it was more than 100 µM; with T-47D breast it was more than 100 µM. The compound further yielded a TGI with UACC-62 melanoma of more than 100 µM.

On to `COc1ccc(NC(=S)c2ccc([N+](=O)[O-])o2)cc1`, for which the TGI in the test with A498 renal came to 29.1 µM; in the test with A549 NSCLC, 11.1 µM; with BT-549 breast it was 4.69 µM; with CAKI-1 renal, 14.1 µM; in the test with EKVX NSCLC, 7.78 µM; with HL-60(TB) leukemia, 5.89 µM. Also, the TGI with HT29 colon came to 3.7 µM; in the test on MDA-N it was 6.11 µM; in the test on MOLT-4 leukemia, 13.9 µM; in the test on NCI-H226 lung, 8.75 µM; with NCI-H23 lung, 5.52 µM; in the test on NCI/ADR-RES ovarian, 12.2 µM. Further, the TGI in the test with OVCAR-4 ovarian is 3.07 µM; in the test with SF-268 CNS, 9.76 µM; with SF-295 CNS it was 10.6 µM; in the test on SNB-75 CNS, 14.9 µM; with SR leukemia, 8.63 µM; with T-47D breast, 17.3 µM. The compound further gave a TGI in the test on UACC-62 melanoma of 3.47 µM.

For the compound `Nc1ccc2c(=S)c3ccccc3[nH]c2c1`, the TGI in the test on A498 renal, in the test with A549 NSCLC, with BT-549 breast, in the test with CAKI-1 renal, with EKVX NSCLC and in the test with HL-60(TB) leukemia was more than 100 µM throughout. Further, the TGI is more than 100 µM in the test on HT29 colon; more than 100 µM in the test with MDA-N; more than 84.4 µM in the test with MOLT-4 leukemia; more than 100 µM in the test on NCI-H226 lung; more than 100 µM in the test with NCI-H23 lung; more than 100 µM with NCI/ADR-RES ovarian. Besides, the TGI with OVCAR-4 ovarian was more than 100 µM; in the test on SF-268 CNS it was more than 100 µM; with SF-295 CNS, more than 100 µM; with SNB-75 CNS it was more than 100 µM; with SR leukemia it was more than 100 µM; in the test with T-47D breast, more than 59 µM. In the test with UACC-62 melanoma, the TGI is more than 100 µM.

With `CN(/N=C/c1ccccn1)C1=NCCN1`, the TGI with A498 renal, in the test with A549 NSCLC, in the test on BT-549 breast, with CAKI-1 renal, in the test on EKVX NSCLC and with HL-60(TB) leukemia was more than 100 µM in each case. For the same compound, the TGI with HT29 colon, in the test with MDA-N, with MOLT-4 leukemia, with NCI-H226 lung, in the test on NCI-H23 lung and in the test with NCI/ADR-RES ovarian was more than 100 µM each time. Further, the TGI with OVCAR-4 ovarian, in the test on SF-268 CNS, in the test with SF-295 CNS, with SNB-75 CNS, in the test with SR leukemia and with T-47D breast was more than 100 µM in each case. In addition, the TGI in the test on UACC-62 melanoma was more than 100 µM.

With `CCc1nc(N)nc(N)c1-c1ccc(N2CCOCC2)c(N=[N+]=[N-])c1`, the TGI is more than 100 µM in the test on A498 renal; more than 100 µM in the test with A549 NSCLC; more than 100 µM with BT-549 breast; more than 100 µM in the test on CAKI-1 renal; more than 100 µM in the test on EKVX NSCLC; more than 79.2 µM with HL-60(TB) leukemia. Moreover, the TGI in the test on HT29 colon is more than 100 µM; with MDA-N, more than 100 µM; in the test with MOLT-4 leukemia, more than 100 µM; in the test with NCI-H226 lung, more than 100 µM; with NCI-H23 lung, more than 83.7 µM; in the test on NCI/ADR-RES ovarian, more than 100 µM. For the same compound, the TGI with OVCAR-4 ovarian is more than 100 µM; with SF-268 CNS, more than 100 µM; in the test with SF-295 CNS it was more than 100 µM; in the test on SNB-75 CNS it was more than 100 µM; in the test on SR leukemia it was more than 80.9 µM; with T-47D breast it was more than 100 µM. In the test with UACC-62 melanoma, this compound had a TGI of more than 100 µM.

For `COC(=O)c1ccc(CCC2=CC(=O)C=CC2=O)cc1`, the TGI with A498 renal stood at 32.9 µM; in the test with A549 NSCLC, 60.5 µM; with BT-549 breast it was 24.4 µM; in the test on CAKI-1 renal it was 13.6 µM; with EKVX NSCLC, 38.7 µM; with HL-60(TB) leukemia, 4.79 µM. For the same compound, the TGI with HT29 colon was determined as 53.4 µM; in the test with MDA-N, 27.6 µM; in the test on MOLT-4 leukemia it was 4.92 µM; in the test with NCI-H226 lung, 48.3 µM; in the test with NCI-H23 lung, 39.4 µM; in the test with NCI/ADR-RES ovarian, 61.2 µM. Also, the TGI with OVCAR-4 ovarian was determined as 38.4 µM; with SF-268 CNS it was 31.7 µM; in the test on SF-295 CNS, 30.6 µM; with SNB-75 CNS, 32 µM; in the test on SR leukemia it was 5.82 µM; in the test with T-47D breast it was 8.79 µM. The same compound returned a TGI with UACC-62 melanoma of 29.3 µM.

`NC(CCC(=O)O)C(=O)NC(Cc1ccc(N(CCCl)CCCl)cc1)C(=O)O` (stereo not given): the TGI with A498 renal, in the test on A549 NSCLC, with BT-549 breast, with CAKI-1 renal, in the test with EKVX NSCLC and with HL-60(TB) leukemia was more than 100 µM in each case. Also, the TGI in the test with HT29 colon, in the test on MDA-N, in the test on MOLT-4 leukemia, in the test on NCI-H226 lung, in the test on NCI-H23 lung and with NCI/ADR-RES ovarian was more than 100 µM throughout. Also, the TGI in the test with OVCAR-4 ovarian, in the test with SF-268 CNS, with SF-295 CNS, in the test on SNB-75 CNS, with SR leukemia and in the test with T-47D breast was more than 100 µM throughout. The same compound showed a TGI in the test on UACC-62 melanoma of more than 100 µM. For the same compound, the GI50 with SR leukemia was > 100 µM and 28.5 µM.

In the case of `O=C1CSC(c2cc3cc(Br)ccc3nc2Cl)N1c1ccc(Cl)cc1` (stereo not given), the TGI is more than 100 µM in the test on A498 renal; more than 100 µM in the test on A549 NSCLC; 61.5 µM in the test on BT-549 breast; more than 100 µM with CAKI-1 renal; more than 100 µM in the test on EKVX NSCLC; 55.7 µM in the test on HL-60(TB) leukemia. Besides, the TGI with HT29 colon is more than 100 µM; with MDA-N, more than 100 µM; with MOLT-4 leukemia, 47.9 µM; with NCI-H226 lung, more than 100 µM; in the test with NCI-H23 lung it was more than 100 µM; in the test with NCI/ADR-RES ovarian, 75.3 µM. For the same compound, the TGI was 81.5 µM with OVCAR-4 ovarian; more than 100 µM in the test with SF-268 CNS; 37.6 µM in the test with SF-295 CNS; more than 100 µM in the test with SNB-75 CNS; 44.8 µM in the test on SR leukemia; more than 100 µM with T-47D breast. In addition, the TGI in the test on UACC-62 melanoma turned out to be 22.6 µM.

As for `COc1cc(S(=O)(=O)Nc2nc(-c3ccc(N=Cc4ccccc4O)cc3)cs2)ccc1Cl`, the TGI was more than 100 µM with A498 renal; more than 100 µM in the test with A549 NSCLC; more than 100 µM with BT-549 breast; more than 100 µM with CAKI-1 renal; 86.8 µM in the test with EKVX NSCLC; more than 100 µM in the test with HL-60(TB) leukemia. Also, the TGI in the test on HT29 colon, in the test on MDA-N, in the test with MOLT-4 leukemia, in the test on NCI-H226 lung, in the test with NCI-H23 lung and in the test on NCI/ADR-RES ovarian was more than 100 µM throughout. Also, the TGI in the test on OVCAR-4 ovarian, in the test on SF-268 CNS, in the test on SF-295 CNS, in the test with SNB-75 CNS, with SR leukemia and in the test on T-47D breast was more than 100 µM each time. Further, the TGI in the test with UACC-62 melanoma turned out to be 75.9 µM.

For the origin of these results see PubChem BioAssay (NCI).
